Here are results for 22 molecules from patent US20260297070A1, “CYCLIC [COMPOUND LEFT OUT] WRN INHIBITORS” (Nimbus Wadjet, Inc., priority 2023, published 2026).

T1 sequence (Q14191 with tags, fused parts or gaps L1074F limits assumed): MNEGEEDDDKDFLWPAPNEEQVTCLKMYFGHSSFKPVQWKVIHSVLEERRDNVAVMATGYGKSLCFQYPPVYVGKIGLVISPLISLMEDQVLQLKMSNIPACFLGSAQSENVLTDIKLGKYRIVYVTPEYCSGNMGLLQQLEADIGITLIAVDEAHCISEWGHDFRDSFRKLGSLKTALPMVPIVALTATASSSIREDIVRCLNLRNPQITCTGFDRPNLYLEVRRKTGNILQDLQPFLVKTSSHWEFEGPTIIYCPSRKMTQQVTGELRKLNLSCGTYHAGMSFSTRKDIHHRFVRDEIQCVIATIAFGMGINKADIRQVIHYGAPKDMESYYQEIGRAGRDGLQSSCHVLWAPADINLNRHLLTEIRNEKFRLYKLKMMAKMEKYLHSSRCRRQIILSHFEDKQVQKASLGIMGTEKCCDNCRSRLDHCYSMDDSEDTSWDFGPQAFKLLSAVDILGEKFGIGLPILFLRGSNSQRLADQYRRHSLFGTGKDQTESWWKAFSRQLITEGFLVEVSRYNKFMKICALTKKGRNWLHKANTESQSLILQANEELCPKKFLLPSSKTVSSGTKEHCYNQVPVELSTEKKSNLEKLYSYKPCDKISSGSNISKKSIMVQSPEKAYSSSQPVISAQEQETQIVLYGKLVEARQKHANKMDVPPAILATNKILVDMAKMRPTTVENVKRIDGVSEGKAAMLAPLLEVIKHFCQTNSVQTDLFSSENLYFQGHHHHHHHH

This assay has as its target T1, human Werner helicase (WRN-BV08, Uniprot Q14191, amino acids 517-1235 with L1074F point mutation) (Homo sapiens, UniProt Q14191, L1074F).
T1 construct: Uniprot Q14191, amino acids 517-1235 with L1074F point mutation; TEV-cleavable 8×His (C, cleaved yes); made in house; host or cells: Sf9 insect cells (baculovirus)
In words: WRN (BV08) ADP-Glo Assay. It counts as biochemical. The settings on record: 0.15 nM WRN, 5 μM ATP, 0.1 nM DNA duplex, 15 min preincubation, 60 min at 25° C., pH 7.5, 1% DMSO; read-out: ADP-Glo_hWRN_IC50. From the text: Example 2: WRN (BV08) ADP-Glo Assay Protocol
Bovine skin gelatin (BSG), dimethyl sulfoxide (DMSO), Pluronic F-127 and Tris(2-carboxyethyl)phosphine hydrochloride solution (TCEP) were purchased from Sigma-Aldrich at the highest level of purity possible. Bicine buffer solution was purchased from Alfa Aesar and compound NSC-617145 was purchased from Tocris. DNA duplex was synthesized at BGI (Shenzhen, China) and was composed of strand 1 with the sequence 5′-[…]-3′ (SEQ ID NO.: 1) and strand 2 with the sequence 5′-[…]-3′ (SEQ ID NO.: 2). DNA strands were annealed by heating to 95° C. for 5 minutes followed by slow cooling to room temperature. Compounds in 100% DMSO (0.1 μl) were spotted into a 384-well white polystyrene Optiplate-384 (Perkin Elmer) assay plate using a LabCyte Echo 550 (Agilent). DMSO (0.1 μl) was added to columns 12, rows A-H and column 24, rows I-P for the maximum signal control. Compound NSC-617145 (0.1 μl) was added to columns 12, rows I-P and 24, rows A-H for the minimum signal control (100% inhibition). Compounds/DMSO were preincubated for 15 minutes at 25° C. with 5 uL 2×WRN (BV08), prepared as described below, in assay buffer containing 20 mM Bicine (pH=7.5), 1 mM MgCl2, 10 mM KCl, 0.1% Pluronic F-127, 0.005% BSG, 1 mM TCEP. The reaction was initiated by the addition of 5 μl 2× substrate mixture in assay buffer and incubated for 60 minutes at 25° C. The final concentrations of the assay components were 0.15 nM WRN, 5 μM ATP, and 0.1 nM DNA duplex. The final DMSO concentration was 1% and the reference compound concentration (NSC-617145) used for the minimal signal control was 20 μM. The reaction was stopped by the addition of the ADP-Glo Kit components (Promega) as directed and the relative luminescence units (RLU) were read on an Envision 2104 (Perkin Elmer).
% Inhibition Calculation:
Where RLU=relative luminescence units, sample=signal in sample well, and MIN and MAX are the respective minimum and maximum signal controls.
Four-Parameter IC50 Fit Equation:
Where top and bottom are normally allowed to float but may be fixed at 100 or 0 respectively in a 3-parameter fit. Y is the % inhibition and X is the compound concentration.
Molecular Biology and virus production. The DNA encoding human Werner helicase (Uniprot Q14191, amino acids 517-1235 with L1074F point mutation) was generated with codon-optimization for E. coli expression and subcloned into the pFastBac vector with a TEV cleavable 8×His tag (WRN-BV08). The baculovirus from the expression plasmid WRN-BV08 was generated from transfection and amplification following the manufacturer's instructions.
Sf9 cells grown in SF900II media were infected with 1:200 WRN-BV08 P2 virus and incubated for protein expression for 72 h at 27° C. The WRN protein was purified using the following protocol. The cell pellets were thawed and resuspended in buffer A (50 mM Tris, pH 7.5, 500 mM NaCl, 1 mM TCEP, 10% Glycerol) supplemented with 0.5% CHAPS, 1 mM [COMPOUND LEFT OUT], 1 μg/mL Leupeptin, 1 μg/mL Pepstatin, and the Pierce Universal Nuclease and cocktail tablet. Cleared lysates were loaded onto a Ni Sepharose™ excel column and washed with buffer A and bound protein was eluted with buffer A supplemented with 300 mM imidazole. The eluted protein was dialyzed against buffer A and digested by His-tagged TEV (1:5 ratio) overnight at 4° C. ZnCl2 was added into the sample at final 15 μM before loading onto a second Ni Sepharose™ excel column. Untagged WRN protein was eluted from the column with buffer A supplemented with 20 mM imidazole, dialyzed overnight into buffer B (50 mM Tris, pH 7.5, 1 mM TCEP, 10% Glycerol) supplemented with 150 mM NaCl and loaded onto a Heparin column. Proteins were eluted with a step gradient of buffer B supplemented with 150 mM, 200 mM, 300 mM and 500 mM NaCl. […]
In the case of `COc1cc(CN(C(=O)C(C(=O)N(C)C)c2ccc(-c3ccc(F)cc3)cc2F)C2C=CS(=O)(=O)C2)ccn1` (single isomer, unassigned) [I-267, (2R**)-2-{3,4′-difluoro-[1,1′-biphenyl]-4-yl}-N-[(3R*)-1,1-dioxo-2,3-dihydro-1lambda6-thiophen-3-yl]-N-[(2-methoxypyridin-4-yl)methyl]-N′,N′-dimethylpropanediamide], the IC50 was in the range of 10 to 50 µM.
For `CN(C)C(=O)C(C(=O)N(Cc1ccnc(C(C)(C)O)c1)C1C=CS(=O)(=O)C1)c1ccc(-c2ccc(F)cc2)cc1` (single isomer, unassigned) [I-271, (2R**)-N-[(3R*)-1,1-dioxo-2,3-dihydro-1lambda6-thiophen-3-yl]-2-{4′-fluoro-[1,1′-biphenyl]-4-yl}-N-{[2-(2-hydroxypropan-2-yl)pyridin-4-yl]methyl}-N′,N′-dimethylpropanediamide], the IC50 was 5 to 10 µM.
As for `O=C(Cn1cc(-c2ccccc2)cn1)N(Cc1ccncc1)C1C=CS(=O)(=O)C1` (single isomer, unassigned) [I-281], the IC50 is 10 to 50 µM.
For the molecule `CC(=O)N(C)C(C(=O)N(Cc1ccncc1)C1C=CS(=O)(=O)C1)c1ccc(-c2ccc(F)cc2)cc1` (single isomer, unassigned) [I-282], the IC50 was in the range of 10 to 50 µM.
For `CN(C)C(=O)C(C(=O)N(Cc1ccnc(C(C)(C)O)c1)C1C=CS(=O)(=O)C1)c1ccc(-c2ccc(F)cc2)cc1` (single isomer, unassigned) [I-309, (2R**)-N-[(3R*)-1,1-dioxo-2,3-dihydro-1lambda6-thiophen-3-yl]-2-{4′-fluoro-[1,1′-biphenyl]-4-yl}-N-{[2-(2-hydroxypropan-2-yl)pyridin-4-yl]methyl}-N′,N′-dimethylpropanediamide], the IC50 is 10 to 50 µM.
Regarding `COc1cc(CN(C(=O)C(C(=O)N(C)C)c2ccc(-c3ccc(F)cc3)cc2F)C2C=CS(=O)(=O)C2)ccn1` (single isomer, unassigned) [I-312, (2R**)-2-{3,4′-difluoro-[1,1′-biphenyl]-4-yl}-N-[(3R*)-1,1-dioxo-2,3-dihydro-1lambda6-thiophen-3-yl]-N-[(2-methoxypyridin-4-yl)methyl]-N′,N′-dimethylpropanediamide], the IC50 was above 50 µM.
Take `COc1cc(CN(C(=O)Cc2ccc(-n3cccc3C)cc2F)C2C=CS(=O)(=O)C2)ccn1` (single isomer, unassigned) [I-329]: the IC50 lay within 10 to 50 µM.
The figure for `COC(C(=O)N(Cc1ccncc1)C1C=CS(=O)(=O)C1)c1ccc(-c2ccc(F)cc2)cc1` (single isomer, unassigned) [I-330, (2R*)-N-[(3R**)-1,1-dioxo-2,3-dihydro-1lambda6-thiophen-3-yl]-2-{4′-fluoro-[1,1′-biphenyl]-4-yl}-2-methoxy-N-[(pyridin-4-yl)methyl]acetamide] is 10 to 50 µM; for `CC(C)(O)c1cc(CN(C(=O)Cc2ccc(-c3ccc(F)c(F)c3)cc2F)C2C=CS(=O)(=O)C2)ccn1` (single isomer, unassigned) [I-332] it is 10 to 50 µM; for `O=C(Cc1ccc(S(F)(F)(F)(F)F)cc1)N(Cc1ccncc1)C1C=CS(=O)(=O)C1` (single isomer, unassigned) [I-336] it is 10 to 50 µM.
The figure for `CN(C)C(=O)C(C(=O)N(Cc1ccnc(C(C)(C)O)c1)C1C=CS(=O)(=O)C1)c1ccc(-c2ccc(F)cc2)cc1F` (single isomer, unassigned) [I-340, (2R**)-2-{3,4′-difluoro-[1,1′-biphenyl]-4-yl}-N-[(3R*)-1,1-dioxo-2,3-dihydro-1lambda6-thiophen-3-yl]-N-{[2-(2-hydroxypropan-2-yl)pyridin-4-yl]methyl}-N′,N′-dimethylpropanediamide] is 10 to 50 µM; for `COc1cc(CN(C(=O)Cc2ccc(-c3ccc(F)cc3O)nc2)C2C=CS(=O)(=O)C2)ccn1` (single isomer, unassigned) [I-353] it is 10 to 50 µM; for `CN(C)C(=O)C(C(=O)N(Cc1ccncc1)C1C=CS(=O)(=O)C1)c1ccc(-c2ccc(F)cc2)cc1` (single isomer, unassigned) [I-362, (2R**)-N′-[(3R*)-1,1-dioxo-2,3-dihydro-1lambda6-thiophen-3-yl]-2-{4′-fluoro-[1,1′-biphenyl]-4-yl}-N,N-dimethyl-N′-[(pyridin-4-yl)methyl]propanediamide] it is above 50 µM.
Consider `COc1cc(CN(C(=O)C(OC)c2ccc(-c3ccc(F)cc3)cc2F)C2C=CS(=O)(=O)C2)ccn1` (single isomer, unassigned) [I-366, (2R*)-2-{3,4′-difluoro-[1,1′-biphenyl]-4-yl}-N-[(3R**)-1,1-dioxo-2,3-dihydro-1lambda6-thiophen-3-yl]-2-methoxy-N-[(2-methoxypyridin-4-yl)methyl]acetamide], for which the IC50 is above 50 µM.
With `CN(C)C(=O)C(C(=O)N(Cc1ccncc1)C1C=CS(=O)(=O)C1)c1ccc(-c2ccc(F)cc2)cc1` (single isomer, unassigned) [I-374, (2R**)-N′-[(3R*)-1,1-dioxo-2,3-dihydro-1lambda6-thiophen-3-yl]-2-{4′-fluoro-[1,1′-biphenyl]-4-yl}-N,N-dimethyl-N′-[(pyridin-4-yl)methyl]propanediamide] the figure was above 50 µM.
The figure for `CN(C)C(=O)C(C(=O)N(Cc1ccncc1)C1C=CS(=O)(=O)C1)c1ccc(-c2ccc(F)cc2)cc1` (single isomer, unassigned) [I-375, (2R**)-N′-[(3R*)-1,1-dioxo-2,3-dihydro-1lambda6-thiophen-3-yl]-2-{4′-fluoro-[1,1′-biphenyl]-4-yl}-N,N-dimethyl-N′-[(pyridin-4-yl)methyl]propanediamide] is above 50 µM; for `CC(=O)N(C)C(C(=O)N(Cc1ccncc1)C1C=CS(=O)(=O)C1)c1ccc(-c2ccc(F)cc2)cc1` (single isomer, unassigned) [I-378] it is above 50 µM; for `COc1cc(CN(C(=O)Cc2ccc(C(F)(F)F)cc2)C2C=CS(=O)(=O)C2)ccn1` (single isomer, unassigned) [I-382] it is above 50 µM.
`COc1cc(CN(C(=O)Cc2ccc(-c3ccc(F)c(F)c3)cc2F)C2C=CS(=O)(=O)C2)ccn1` (single isomer, unassigned) [I-400]: the IC50 was above 50 µM.
On to `COc1cc(CN(C(=O)C(OC)c2ccc(-c3ccc(F)cc3)cc2F)C2C=CS(=O)(=O)C2)ccn1` (single isomer, unassigned) [I-404, (2R*)-2-{3,4′-difluoro-[1,1′-biphenyl]-4-yl}-N-[(3R**)-1,1-dioxo-2,3-dihydro-1lambda6-thiophen-3-yl]-2-methoxy-N-[(2-methoxypyridin-4-yl)methyl]acetamide], for which the IC50 was above 50 µM.
On to `COc1cc(CN(C(=O)C(OC)c2ccc(-c3ccc(F)cc3)cc2F)C2C=CS(=O)(=O)C2)ccn1` (single isomer, unassigned) [I-405, (2R*)-2-{3,4′-difluoro-[1,1′-biphenyl]-4-yl}-N-[(3R**)-1,1-dioxo-2,3-dihydro-1lambda6-thiophen-3-yl]-2-methoxy-N-[(2-methoxypyridin-4-yl)methyl]acetamide], for which the IC50 was above 50 µM.
As for `CC(C)(O)c1cc(CN(C(=O)Cc2ccc(-n3cccc3)cc2F)C2C=CS(=O)(=O)C2)ccn1` (single isomer, unassigned) [I-469], the IC50 is above 50 µM.
